Test results reported in patent US11702422B2, “Imidazopyridazines as modulators of IL-17” (Janssen Pharmaceutica NV, priority 2020, dated 2023).

Key:
[1] = target: IL-17A(FLAG-Tagged): IL-17RA(His-Tagged) (Homo sapiens, UniProt Q16552, K93Q); assay: IL-17A(FLAG-Tagged): IL-17RA(His-Tagged) Binding Disruption Eu-HTRF Assay; conditions: IL-17A/IL-17RA binding disruption, simple average if tested more than once
Outline: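 IC50 comes from a one-site competition fit of the HTRF 665/620 nm ratio. Compound dilutions (2-fold, 22 points) were held 1 h rt with FLAG-tagged IL-17A dimer, then His-tagged IL-17RA plus Eu-cryptate anti-FLAG and D2 anti-His antibodies were added for 2 h rt.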

[2] = test system: IL-17A-induced G-CSF production in human normal keratinocyte (NHK); assay: NHK Assay: IL-17A-induced G-CSF production in human normal keratinocytes; format: cell-based; conditions: 24 h, adult normal human keratinocytes, IL-17A 5 ng/mL, simple average if tested more than once
Outline: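 Adult NHK, 3000-4000 cells/well; rhIL-17A + titrated cpd preincubated 1 h rt, then onto cells. Final: IL-17A 5 ng/mL, DMSO 0.2%, 5% FBS. 24 h, 37° C. G-CSF in supernatant by HTRF vs standard curve; IC50. Viability by CellTiter-Glo vs DMSO.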

UniProt Q16552, sequence (Q16552 with tags, fused parts or gaps K93Q): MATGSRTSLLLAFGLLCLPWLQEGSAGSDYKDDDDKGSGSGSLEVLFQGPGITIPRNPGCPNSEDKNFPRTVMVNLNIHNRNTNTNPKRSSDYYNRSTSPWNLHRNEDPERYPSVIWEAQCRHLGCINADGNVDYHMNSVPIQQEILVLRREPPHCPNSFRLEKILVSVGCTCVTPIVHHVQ

Structure (SMILES)	IC50 [1] [nM]	IC50 ([2]; Homo sapiens, Keratinocyte) [nM]	IC50 [2] [nM]
O=C(CCC(F)(F)F)N[C@@H](c1cnn2cc([C@@H](NC(=O)c3ccnc(CC(F)(F)F)c3)C3CCC(F)(F)CC3)nc2c1)C1CC1 [Example 74, N—((S)-(7-((R)-Cyclopropyl(4,4,4-trifluorobutanamido)methyl)imidazo[1,2-b]pyridazin-2-yl)(4,4-difluorocyclohexyl)methyl)-2-(2,2,2-trifluoroethyl)isonicotinamide]	120	58	–
CC(C)n1nccc1C(=O)N[C@H](c1cn2ncc([C@H](NC(=O)CC(C)C(F)(F)F)C3CC3)cc2n1)C1CCC(F)(F)CC1 (single isomer, unassigned) [Example 122, N—((S)-(7-((R)-Cyclopropyl((S*)-4,4,4-trifluoro-3-methylbutanamido)methyl)imidazo[1,2-b]pyridazin-2-yl)(4,4-difluorocyclohexyl)methyl)-1-isopropyl-1H-pyrazole-5-carboxamide]	110	–	220
O=C(CCC(F)(F)F)N[C@@H](c1cnn2cc([C@@H](NC(=O)c3cnnn3CCOC(F)F)C3CCC(F)(F)CC3)nc2c1)C1CC1 [Example 34, N—((S)-(7-((R)-Cyclopropyl(4,4,4-trifluorobutanamido)methyl)imidazo[1,2-b]pyridazin-2-yl)(4,4-difluorocyclohexyl)methyl)-1-(2-(difluoromethoxy)ethyl)-1H-1,2,3-triazole-5-carboxamide]	180	64	–
O=C(CCC(F)(F)F)N[C@@H](c1cnn2cc([C@@H](NC(=O)c3cnn(CCC(F)F)n3)C3CCC(F)(F)CC3)nc2c1)C1CC1 [Example 32, N—((S)-(7-((R)-Cyclopropyl(4,4,4-trifluorobutanamido)methyl)imidazo[1,2-b]pyridazin-2-yl)(4,4-difluorocyclohexyl)methyl)-2-(3,3-difluoropropyl)-2H-1,2,3-triazole-4-carboxamide]	140	240	–
CC(C)n1nccc1C(=O)N[C@H](c1cn2ncc(C(NC(=O)CCC(F)F)C3CC3)cc2n1)C1CCC(F)(F)CC1 (single isomer, unassigned) [Example 135, N-((1S)-(7-((R*)-Cyclopropyl(4,4-difluorobutanamido)methyl)imidazo[1,2-b]pyridazin-2-yl)(4,4-difluorocyclohexyl)methyl)-1-isopropyl-1H-pyrazole-5-carboxamide]	110	230	–
N#CC12CC(Cn3ncc(C(=O)N[C@H](c4cn5ncc([C@H](NC(=O)CCC(F)(F)F)C6CC6)cc5n4)C4CCC(F)(F)CC4)n3)(C1)C2 [Example 146, 2-((3-Cyanobicyclo[1.1.1]pentan-1-yl)methyl)-N—((S)-(7-((R)-cyclopropyl(4,4,4-trifluorobutanamido)methyl)imidazo[1,2-b]pyridazin-2-yl)(4,4-difluorocyclohexyl)methyl)-2H-1,2,3-triazole-4-carboxamide]	680	710	–
O=C(CCC(F)(F)F)N[C@@H](c1cnn2cc([C@@H](NC(=O)c3cnnn3C3CC3)C3CCC(F)(F)CC3)nc2c1)C1CC1 [Example 68, 1-Cyclopropyl-N—((S)-(7-((R)-cyclopropyl(4,4,4-trifluorobutanamido)methyl)imidazo[1,2-b]pyridazin-2-yl)(4,4-difluorocyclohexyl)methyl)-1H-1,2,3-triazole-5-carboxamide]	150	250	–
Cc1nonc1C(=O)N[C@H](c1cn2ncc([C@H](NC(=O)CO[C@@H](C)C(F)(F)F)C3CC3)cc2n1)C1CCC(F)(F)CC1 [Example 333, N—((S)-(7-((R)-Cyclopropyl(2-(((S)-1,1,1-trifluoropropan-2-yl)oxy)acetamido)methyl)imidazo[1,2-b]pyridazin-2-yl)(4,4-difluorocyclohexyl)methyl)-4-methyl-1,2,5-oxadiazole-3-carboxamide]	180	620	–
CC(C)Oc1nocc1C(=O)N[C@H](c1cn2ncc([C@H](NC(=O)CCC(F)(F)F)C3CC3)cc2n1)C1CCC(F)(F)CC1 [Example 284, N—((S)-(7-((R)-Cyclopropyl(4,4,4-trifluorobutanamido)methyl)imidazo[1,2-b]pyridazin-2-yl)(4,4-difluorocyclohexyl)methyl)-3-isopropoxyisoxazole-4-carboxamide]	220	920	–

Continued, in another order:

IC50 [1] [nM]	Structure (SMILES)	IC50 ([2]; Homo sapiens, Keratinocyte) [nM]	IC50 [2] [nM]
73	CC(C)c1cncc(C(=O)N[C@H](c2cn3ncc([C@H](NC(=O)CCC(F)(F)F)C4CC4)cc3n2)C2CCC(F)(F)CC2)c1 [Example 415, N—((S)-(7-((R)-Cyclopropyl(4,4,4-trifluorobutanamido)methyl)imidazo[1,2-b]pyridazin-2-yl)(4,4-difluorocyclohexyl)methyl)-5-isopropylnicotinamide]	500	–
180	CC(C)n1nccc1C(=O)N[C@H](c1cn2ncc([C@H](NC(=O)CC3CC(F)(F)C3)C3CC3)cc2n1)[C@@H]1C[C@@H]2[C@H](C1)C2(F)F (relative stereo) [Example 404, N—((S*)-(7-((R)-Cyclopropyl(2-(3,3-difluorocyclobutyl)acetamido)methyl)imidazo[1,2-b]pyridazin-2-yl)((1R,3s,5S)-6,6-difluorobicyclo[3.1.0]hexan-3-yl)methyl)-1-isopropyl-1H-pyrazole-5-carboxamide]	58	–
1000	Cc1nonc1C(=O)N[C@H](c1cn2ncc(C(NC(=O)CC3CC(F)(F)C3)C3CCC3)cc2n1)C1CCC(F)(F)CC1 (single isomer, unassigned) [Example 494, N—((S)-(7-((S*)-Cyclobutyl(2-(3,3-difluorocyclobutyl)acetamido)methyl)imidazo[1,2-b]pyridazin-2-yl)(4,4-difluorocyclohexyl)methyl)-4-methyl-1,2,5-oxadiazole-3-carboxamide]	–	> 20000
130	O=C(CCC(F)(F)F)N[C@@H](c1cnn2cc([C@@H](NC(=O)c3cncc(C(F)F)c3)C3CCC(F)(F)CC3)nc2c1)C1CC1 [Example 455, N—((S)-(7-((R)-Cyclopropyl(4,4,4-trifluorobutanamido)methyl)imidazo[1,2-b]pyridazin-2-yl)(4,4-difluorocyclohexyl)methyl)-5-(difluoromethyl)nicotinamide]	850	–
550	CC(C)n1nnc(C(=O)N[C@H](c2cn3ncc([C@H](NC(=O)CCC(F)(F)F)C4CC4)cc3n2)C2CCC(F)(F)CC2)n1 [Example 484, N—[(S)-[7-[(R)-Cyclopropyl-(4,4,4-trifluorobutanamido)methyl]imidazo[1,2-b]pyridazin-2-yl]-(4,4-difluorocyclohexyl)methyl]-2-isopropyl-tetrazole-5-carboxamide]	4600	–
52	CC(C)(C[C@H](NC(=O)c1nonc1C1CC1)c1cn2ncc([C@H](NC(=O)CC3CC(F)(F)C3)C3CC3)cc2n1)C(F)(F)F [Example 542, 4-Cyclopropyl-N—((S)-1-(7-((R)-cyclopropyl(2-(3,3-difluorocyclobutyl)acetamido)methyl)imidazo[1,2-b]pyridazin-2-yl)-4,4,4-trifluoro-3,3-dimethylbutyl)-1,2,5-oxadiazole-3-carboxamide]	46	–
690	[2H]C([2H])([2H])C([2H])([2H])n1nccc1C(=O)N[C@H](c1cn2ncc(C(NC(=O)CC3CC(F)(F)C3)C3CCC3)cc2n1)C1CCC(F)(F)CC1 (single isomer, unassigned) [Example 496, N—((S)-(7-((S*)-Cyclobutyl(2-(3,3-difluorocyclobutyl)acetamido)methyl)imidazo[1,2-b]pyridazin-2-yl)(4,4-difluorocyclohexyl)methyl)-1-(ethyl-d5)-1H-pyrazole-5-carboxamide]	–	10000
66	O=C(CCC(F)(F)F)N[C@@H](c1cnn2cc([C@@H](NC(=O)c3nonc3OCCF)C3CCC(F)(F)CC3)nc2c1)C1CC1 [Example 384, N—((S)-(7-((R)-Cyclopropyl(4,4,4-trifluorobutanamido)methyl)imidazo[1,2-b]pyridazin-2-yl)(4,4-difluorocyclohexyl)methyl)-4-(2-fluoroethoxy)-1,2,5-oxadiazole-3-carboxamide]	31	–
380	Cc1ncoc1C(=O)N[C@H](c1cn2ncc([C@H](NC(=O)CCC(F)(F)F)C3CC3)cc2n1)C1CCC(F)(F)CC1 [Example 471, N—((S)-(7-((R)-Cyclopropyl(4,4,4-trifluorobutanamido)methyl)imidazo[1,2-b]pyridazin-2-yl)(4,4-difluorocyclohexyl)methyl)-4-methyloxazole-5-carboxamide]	2300	–
58	Cc1nsnc1C(=O)N[C@H](c1cn2ncc(C(NC(=O)CCC(F)(F)F)C3CC3)cc2n1)C1CCC(F)(F)CC1 (single isomer, unassigned) [Example 467, N—((S)-(7-((R*)-Cyclopropyl(4,4,4-trifluorobutanamido)methyl)imidazo[1,2-b]pyridazin-2-yl)(4,4-difluorocyclohexyl)methyl)-4-methyl-1,2,5-thiadiazole-3-carboxamide]	360	–
30	CC(C)C(NC(=O)CC1CC(F)(F)C1)c1cnn2cc([C@@H](NC(=O)c3nonc3C3CC3)C3CCC(F)(F)CC3)nc2c1 (single isomer, unassigned) [Example 512, 4-Cyclopropyl-N—((S)-(7-((S*)-1-(2-(3,3-difluorocyclobutyl)acetamido)-2-methylpropyl)imidazo[1,2-b]pyridazin-2-yl)(4,4-difluorocyclohexyl)methyl)-1,2,5-oxadiazole-3-carboxamide]	35	–
